Measurements from patent publication US7439243B2, “Piperazinyl-quinoline derivatives useful for the treatment of CNS disorders” (Glaxo Group Limited, priority 2003, dated 2008).
Where a name gives a salt, the structure may show the parent alone. Read-outs that look alike come from different tables or passages of the source.

Target: human cloned 5-HT6 receptors (Homo sapiens, UniProt P50406)
Test: 5-HT6 receptor affinity (procedures outlined in WO98/27081)
Format: binding
Excerpt: Compounds can be tested following the procedures outlined in WO98/27081.

Chain of human cloned 5-HT6 receptors (P50406 whole entry): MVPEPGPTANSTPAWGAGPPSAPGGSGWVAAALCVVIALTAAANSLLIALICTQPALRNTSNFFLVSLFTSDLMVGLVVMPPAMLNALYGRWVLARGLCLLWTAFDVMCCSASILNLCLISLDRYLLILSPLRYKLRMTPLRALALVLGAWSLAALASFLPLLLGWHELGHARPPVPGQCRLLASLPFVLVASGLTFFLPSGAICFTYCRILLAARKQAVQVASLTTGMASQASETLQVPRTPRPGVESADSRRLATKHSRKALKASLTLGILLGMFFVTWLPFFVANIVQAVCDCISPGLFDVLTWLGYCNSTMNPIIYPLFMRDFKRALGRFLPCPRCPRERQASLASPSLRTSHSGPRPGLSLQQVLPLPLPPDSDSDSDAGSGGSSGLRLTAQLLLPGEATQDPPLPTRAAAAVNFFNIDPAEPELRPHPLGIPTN

| Ki (human cloned 5-HT6 receptors, read-out: pKi (converted)) [µM] | SMILES | Ki [µM] |
| --- | --- | --- |
|  | Clc1cccc(Cc2cnc3c(N4CCNCC4)cccc3c2)c1 [Example E1, 3-[(3-Chlorophenyl)methyl]-8-(1-piperazinyl)quinoline hydrochloride] | < 0.0316 |
| < 0.0316 | O=C(c1cccc(Cl)c1)c1cnc2c(N3CCNCC3)cccc2c1 [Example E2, (3-Chlorophenyl)[8-(1-piperazinyl)-3-quinolinyl]methanone hydrochloride] |  |
